From BindingDB's records for doi:10.1073/pnas.182234399 (Case Western Reserve University, 2002)

Tests used:
D(3) dopamine receptor = D(3) dopamine receptor (Homo sapiens, UniProt P35462)
[1] = biological target: 5-hydroxytryptamine receptor 1A (Homo sapiens, UniProt P08908)
[2] = biological target: 5-hydroxytryptamine receptor 6 (Homo sapiens, UniProt P50406)
[3] = biological target: 5-hydroxytryptamine receptor 2A (Rattus norvegicus, UniProt P14842)
Histamine H1 receptor = Histamine H1 receptor (Homo sapiens, UniProt P35367)
[4] = biological target: 5-hydroxytryptamine receptor 1B (Homo sapiens, UniProt P28222)
[5] = biological target: 5-hydroxytryptamine receptor 1D (Homo sapiens, UniProt P28221)
[6] = biological target: 5-hydroxytryptamine receptor 2B (Homo sapiens, UniProt P41595)
[7] = biological target: 5-hydroxytryptamine receptor 7 (Homo sapiens, UniProt P34969)
[8] = biological target: 5-hydroxytryptamine receptor 1E (Homo sapiens, UniProt P28566)
[9] = biological target: Neuronal acetylcholine receptor subunit alpha-4 (Homo sapiens, UniProt P43681)
[10] = biological target: Neuronal acetylcholine receptor subunit alpha-4 (Rattus norvegicus, UniProt P09483)
[11] = biological target: 5-hydroxytryptamine receptor 3A (Homo sapiens, UniProt P46098)
[12] = biological target: Beta-1 adrenergic receptor (Rattus norvegicus, UniProt P18090)
[13] = biological target: Muscarinic acetylcholine receptor M3 (Homo sapiens, UniProt P20309)
[14] = biological target: Metabotropic glutamate receptor 5 (Homo sapiens, UniProt P41594)
D(2) dopamine receptor = D(2) dopamine receptor (Homo sapiens, UniProt P14416)
[15] = biological target: Alpha-1A adrenergic receptor (Homo sapiens, UniProt P35348)
D(1A) dopamine receptor = D(1A) dopamine receptor (Homo sapiens, UniProt P21728)
[16] = biological target: 5-hydroxytryptamine receptor 5A (Homo sapiens, UniProt P47898)
[17] = biological target: 5-hydroxytryptamine receptor 2C (Rattus norvegicus, UniProt P08909)
D(1B) dopamine receptor = D(1B) dopamine receptor (Homo sapiens, UniProt P21918)
[18] = biological target: Metabotropic glutamate receptor 4 (Homo sapiens, UniProt Q14833)
[19] = biological target: Metabotropic glutamate receptor 1 (Homo sapiens, UniProt Q13255)
[20] = biological target: Metabotropic glutamate receptor 2 (Homo sapiens, UniProt Q14416)
[21] = biological target: Muscarinic acetylcholine receptor M2 (Homo sapiens, UniProt P08172)
[22] = biological target: Muscarinic acetylcholine receptor M1 (Homo sapiens, UniProt P11229)
[23] = biological target: Gamma-aminobutyric acid receptor subunit alpha-1 (Rattus norvegicus, UniProt P62813)
Vasopressin V1b receptor = Vasopressin V1b receptor (Homo sapiens, UniProt P47901)
[24] = biological target: Muscarinic acetylcholine receptor M4 (Homo sapiens, UniProt P08173)
[25] = biological target: Neuronal acetylcholine receptor subunit alpha-2 (Homo sapiens, UniProt Q15822)
[26] = biological target: Neuronal acetylcholine receptor subunit alpha-3 (Homo sapiens, UniProt P32297)
D(4) dopamine receptor = D(4) dopamine receptor (Rattus norvegicus, UniProt P30729)
[27] = biological target: Sodium-dependent dopamine transporter (Bos taurus, UniProt P27922)
[28] = biological target: Glutamate receptor ionotropic, NMDA 1 (Rattus norvegicus, UniProt P35439)
[29] = biological target: Metabotropic glutamate receptor 6 (Homo sapiens, UniProt O15303)
[30] = biological target: Metabotropic glutamate receptor 8 (Homo sapiens, UniProt O00222)
[31] = biological target: Muscarinic acetylcholine receptor M5 (Homo sapiens, UniProt P08912)
[32] = biological target: Beta-2 adrenergic receptor (Rattus norvegicus, UniProt P10608)
Vasopressin V2 receptor = Vasopressin V2 receptor (Homo sapiens, UniProt P30518)

Measured: Ki

Sequence of Muscarinic acetylcholine receptor M4 (P08173 whole entry): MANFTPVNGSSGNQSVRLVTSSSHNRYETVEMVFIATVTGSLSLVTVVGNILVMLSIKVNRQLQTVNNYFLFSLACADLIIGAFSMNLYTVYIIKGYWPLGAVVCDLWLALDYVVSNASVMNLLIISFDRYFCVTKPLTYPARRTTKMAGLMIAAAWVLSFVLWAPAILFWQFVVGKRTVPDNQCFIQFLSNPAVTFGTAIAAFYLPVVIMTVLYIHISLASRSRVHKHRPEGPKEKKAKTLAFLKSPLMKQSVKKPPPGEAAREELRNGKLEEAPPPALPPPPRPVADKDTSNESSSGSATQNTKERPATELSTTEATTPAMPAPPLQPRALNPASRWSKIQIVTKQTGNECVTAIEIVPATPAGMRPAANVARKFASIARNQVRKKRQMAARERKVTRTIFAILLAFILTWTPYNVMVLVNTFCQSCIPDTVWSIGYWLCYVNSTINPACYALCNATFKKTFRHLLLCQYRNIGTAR
Sequence of Metabotropic glutamate receptor 1 (Q13255 whole entry): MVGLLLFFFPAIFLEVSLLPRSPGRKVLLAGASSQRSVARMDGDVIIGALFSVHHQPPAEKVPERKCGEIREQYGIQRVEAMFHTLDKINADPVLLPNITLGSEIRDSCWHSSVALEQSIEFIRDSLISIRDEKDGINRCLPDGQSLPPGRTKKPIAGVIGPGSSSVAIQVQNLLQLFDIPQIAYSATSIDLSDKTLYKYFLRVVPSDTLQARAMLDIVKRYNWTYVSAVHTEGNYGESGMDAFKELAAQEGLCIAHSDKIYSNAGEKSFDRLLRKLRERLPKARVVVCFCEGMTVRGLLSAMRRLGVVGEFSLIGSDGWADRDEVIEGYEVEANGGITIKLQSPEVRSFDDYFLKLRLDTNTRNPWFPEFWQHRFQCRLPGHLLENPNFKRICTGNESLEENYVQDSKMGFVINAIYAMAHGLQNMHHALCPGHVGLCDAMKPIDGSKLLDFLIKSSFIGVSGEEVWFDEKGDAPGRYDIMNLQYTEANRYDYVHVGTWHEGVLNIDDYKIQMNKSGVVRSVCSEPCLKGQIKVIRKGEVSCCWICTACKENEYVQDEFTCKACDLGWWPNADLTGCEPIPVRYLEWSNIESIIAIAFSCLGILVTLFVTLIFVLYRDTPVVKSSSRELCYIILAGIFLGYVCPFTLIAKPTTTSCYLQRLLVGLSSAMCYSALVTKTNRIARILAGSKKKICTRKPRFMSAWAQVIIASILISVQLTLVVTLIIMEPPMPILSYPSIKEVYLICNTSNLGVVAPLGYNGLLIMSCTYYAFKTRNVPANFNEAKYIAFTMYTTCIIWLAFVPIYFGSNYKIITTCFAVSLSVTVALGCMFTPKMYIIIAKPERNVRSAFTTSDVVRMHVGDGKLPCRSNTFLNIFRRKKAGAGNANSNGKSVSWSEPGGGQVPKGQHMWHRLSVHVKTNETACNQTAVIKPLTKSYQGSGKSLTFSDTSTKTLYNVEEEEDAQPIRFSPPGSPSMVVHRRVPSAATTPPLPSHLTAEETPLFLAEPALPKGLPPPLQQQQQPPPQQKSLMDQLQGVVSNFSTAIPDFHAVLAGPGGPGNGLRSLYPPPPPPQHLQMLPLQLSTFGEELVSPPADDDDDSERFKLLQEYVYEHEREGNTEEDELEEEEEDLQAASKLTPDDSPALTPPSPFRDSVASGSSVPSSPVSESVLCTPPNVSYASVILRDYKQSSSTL
Sequence of Beta-2 adrenergic receptor (P10608 whole entry): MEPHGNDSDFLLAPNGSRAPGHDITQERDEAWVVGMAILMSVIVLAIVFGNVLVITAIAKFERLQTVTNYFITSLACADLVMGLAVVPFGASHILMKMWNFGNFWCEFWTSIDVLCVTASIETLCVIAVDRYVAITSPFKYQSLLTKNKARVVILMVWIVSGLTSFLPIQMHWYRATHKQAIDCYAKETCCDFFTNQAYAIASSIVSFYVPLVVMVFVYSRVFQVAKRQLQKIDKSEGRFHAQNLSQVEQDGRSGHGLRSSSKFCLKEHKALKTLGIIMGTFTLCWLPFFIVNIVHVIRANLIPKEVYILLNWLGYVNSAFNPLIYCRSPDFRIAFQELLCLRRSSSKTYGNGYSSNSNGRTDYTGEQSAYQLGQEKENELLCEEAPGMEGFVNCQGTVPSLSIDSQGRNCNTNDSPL
Sequence of Histamine H1 receptor (P35367 whole entry): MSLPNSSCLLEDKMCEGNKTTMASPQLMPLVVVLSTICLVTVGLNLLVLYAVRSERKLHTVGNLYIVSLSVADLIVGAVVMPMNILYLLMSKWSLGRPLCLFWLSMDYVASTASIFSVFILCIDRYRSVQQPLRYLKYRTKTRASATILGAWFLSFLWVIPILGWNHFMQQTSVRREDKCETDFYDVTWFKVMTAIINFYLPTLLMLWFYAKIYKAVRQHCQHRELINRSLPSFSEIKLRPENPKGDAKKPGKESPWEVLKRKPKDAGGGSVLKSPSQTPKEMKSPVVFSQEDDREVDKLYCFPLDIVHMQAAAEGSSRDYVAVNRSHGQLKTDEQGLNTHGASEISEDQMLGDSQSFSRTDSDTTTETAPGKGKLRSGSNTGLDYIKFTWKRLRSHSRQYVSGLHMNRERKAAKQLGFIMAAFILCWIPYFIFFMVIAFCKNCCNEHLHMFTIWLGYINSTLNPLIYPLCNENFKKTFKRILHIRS
Sequence of 5-hydroxytryptamine receptor 2A (P14842 whole entry): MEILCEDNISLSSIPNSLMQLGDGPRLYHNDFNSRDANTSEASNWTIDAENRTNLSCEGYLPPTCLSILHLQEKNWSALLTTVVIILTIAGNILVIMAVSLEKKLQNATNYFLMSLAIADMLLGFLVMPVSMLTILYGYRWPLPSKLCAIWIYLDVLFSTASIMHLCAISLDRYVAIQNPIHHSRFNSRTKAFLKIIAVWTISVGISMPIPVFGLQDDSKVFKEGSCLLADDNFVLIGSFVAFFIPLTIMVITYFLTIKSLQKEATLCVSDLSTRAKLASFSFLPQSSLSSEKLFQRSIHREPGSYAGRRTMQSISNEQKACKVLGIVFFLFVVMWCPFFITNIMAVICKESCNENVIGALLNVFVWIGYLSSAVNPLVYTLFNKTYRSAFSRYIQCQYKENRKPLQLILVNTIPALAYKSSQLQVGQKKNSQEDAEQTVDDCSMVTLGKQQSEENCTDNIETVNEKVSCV
Sequence of Neuronal acetylcholine receptor subunit alpha-4 (Rattus norvegicus, UniProt P09483) (P09483 whole entry): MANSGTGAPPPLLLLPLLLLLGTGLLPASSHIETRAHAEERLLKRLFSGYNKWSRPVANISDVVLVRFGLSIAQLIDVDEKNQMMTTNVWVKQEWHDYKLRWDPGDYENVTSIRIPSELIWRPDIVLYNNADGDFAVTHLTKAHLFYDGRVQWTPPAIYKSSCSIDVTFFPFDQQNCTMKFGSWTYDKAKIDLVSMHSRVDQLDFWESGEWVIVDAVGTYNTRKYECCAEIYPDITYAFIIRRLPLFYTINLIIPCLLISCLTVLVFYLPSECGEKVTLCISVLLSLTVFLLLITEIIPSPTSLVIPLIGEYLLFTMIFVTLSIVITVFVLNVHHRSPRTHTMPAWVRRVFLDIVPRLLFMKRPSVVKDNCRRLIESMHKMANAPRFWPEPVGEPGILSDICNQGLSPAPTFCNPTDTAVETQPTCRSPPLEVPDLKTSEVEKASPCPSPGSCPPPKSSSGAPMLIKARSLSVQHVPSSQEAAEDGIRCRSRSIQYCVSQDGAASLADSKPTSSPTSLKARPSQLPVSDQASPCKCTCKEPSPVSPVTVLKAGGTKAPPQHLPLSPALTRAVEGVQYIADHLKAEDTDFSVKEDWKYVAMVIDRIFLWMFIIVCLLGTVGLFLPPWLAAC
Sequence of Muscarinic acetylcholine receptor M3 (P20309 whole entry): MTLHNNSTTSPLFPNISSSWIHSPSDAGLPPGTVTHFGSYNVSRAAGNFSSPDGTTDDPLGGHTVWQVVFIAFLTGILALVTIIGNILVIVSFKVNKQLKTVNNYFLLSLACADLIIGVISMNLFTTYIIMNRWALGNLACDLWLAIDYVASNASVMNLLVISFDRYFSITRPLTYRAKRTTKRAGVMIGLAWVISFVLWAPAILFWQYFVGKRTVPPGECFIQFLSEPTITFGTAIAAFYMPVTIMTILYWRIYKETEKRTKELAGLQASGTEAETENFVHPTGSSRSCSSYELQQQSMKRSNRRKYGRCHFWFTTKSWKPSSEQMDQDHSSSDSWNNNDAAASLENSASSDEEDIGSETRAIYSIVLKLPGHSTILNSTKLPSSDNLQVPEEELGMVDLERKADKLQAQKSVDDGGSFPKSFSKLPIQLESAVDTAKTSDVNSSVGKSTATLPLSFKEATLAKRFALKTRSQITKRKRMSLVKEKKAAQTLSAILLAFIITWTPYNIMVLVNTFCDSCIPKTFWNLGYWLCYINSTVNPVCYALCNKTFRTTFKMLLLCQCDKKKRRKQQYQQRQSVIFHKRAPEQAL
Sequence of Neuronal acetylcholine receptor subunit alpha-2 (Q15822 whole entry): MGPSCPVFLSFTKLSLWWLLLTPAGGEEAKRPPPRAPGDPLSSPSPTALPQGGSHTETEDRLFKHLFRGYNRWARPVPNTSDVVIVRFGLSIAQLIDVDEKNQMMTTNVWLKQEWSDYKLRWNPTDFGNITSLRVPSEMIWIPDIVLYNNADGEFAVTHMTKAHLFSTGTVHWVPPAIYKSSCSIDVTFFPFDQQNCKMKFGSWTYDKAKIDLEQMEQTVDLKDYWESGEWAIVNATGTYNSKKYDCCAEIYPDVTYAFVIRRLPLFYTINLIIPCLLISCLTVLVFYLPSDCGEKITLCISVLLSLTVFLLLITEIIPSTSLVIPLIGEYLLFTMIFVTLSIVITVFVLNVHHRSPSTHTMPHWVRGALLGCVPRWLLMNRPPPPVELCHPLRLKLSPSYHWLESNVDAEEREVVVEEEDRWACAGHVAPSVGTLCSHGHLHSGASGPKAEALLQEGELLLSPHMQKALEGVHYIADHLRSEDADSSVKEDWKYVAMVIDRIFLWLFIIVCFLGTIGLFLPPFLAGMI

COC(=O)[C@@H]1C[C@H](OC(C)=O)C(=O)[C@H]2[C@@]1(C)CC[C@H]1C(=O)O[C@H](c3ccoc3)C[C@]21C [2S,4aR,6a(R,7R,9S,10aS,10bR)-9-(acetyloxy)-2-(furan-3-yl)dodecahydro-6a,10b-dimethyl-4,10-dioxo-2H-naphtho[2,1-c]pyran-7-carboxylic acid methyl ester]
> 10 µM: D(3) dopamine receptor | [1] | [2] | [3] | Histamine H1 receptor | [4] | [5] | [6] | [7] | [8] | [9] | [10] | [11] | [12] | [13] | [14] | D(2) dopamine receptor | [15] | D(1A) dopamine receptor | [16] | [17] | D(1B) dopamine receptor | [18] | [19] | [20] | [21] | [22] | [23] | Vasopressin V1b receptor | [24] | [25] | [26] | D(4) dopamine receptor | [27] | [28] | [29] | [30] | [31] | [32] | Vasopressin V2 receptor
